2 compounds from ChEMBL document CHEMBL5614424, “Natural Product-Inspired Discovery of Naphthoquinone-Furo-Piperidine Derivatives as Novel STAT3 Inhibitors for the Treatment of Triple-Negative Breast Cancer” (J Med Chem, 2024) can be followed below.

Assay [1] relates to MDA-MB-468. Kind of assay: Induction of apoptosis in human MDA-MB-468 cells assessed as up-regulation of cleaved Bax at 2.5 to 5 uM measured after 24 hrs by Western blotting analysis. It is filed as functional, cell-based. Conditions: dose 2.5-5 µM. (In general: A western blot detects proteins with antibodies after separation by electrophoresis.)
Assay [2] concerns the target T1, Signal transducer and activator of transcription 5A (Homo sapiens) (UniProt P42229).
T1 sequence (whole entry): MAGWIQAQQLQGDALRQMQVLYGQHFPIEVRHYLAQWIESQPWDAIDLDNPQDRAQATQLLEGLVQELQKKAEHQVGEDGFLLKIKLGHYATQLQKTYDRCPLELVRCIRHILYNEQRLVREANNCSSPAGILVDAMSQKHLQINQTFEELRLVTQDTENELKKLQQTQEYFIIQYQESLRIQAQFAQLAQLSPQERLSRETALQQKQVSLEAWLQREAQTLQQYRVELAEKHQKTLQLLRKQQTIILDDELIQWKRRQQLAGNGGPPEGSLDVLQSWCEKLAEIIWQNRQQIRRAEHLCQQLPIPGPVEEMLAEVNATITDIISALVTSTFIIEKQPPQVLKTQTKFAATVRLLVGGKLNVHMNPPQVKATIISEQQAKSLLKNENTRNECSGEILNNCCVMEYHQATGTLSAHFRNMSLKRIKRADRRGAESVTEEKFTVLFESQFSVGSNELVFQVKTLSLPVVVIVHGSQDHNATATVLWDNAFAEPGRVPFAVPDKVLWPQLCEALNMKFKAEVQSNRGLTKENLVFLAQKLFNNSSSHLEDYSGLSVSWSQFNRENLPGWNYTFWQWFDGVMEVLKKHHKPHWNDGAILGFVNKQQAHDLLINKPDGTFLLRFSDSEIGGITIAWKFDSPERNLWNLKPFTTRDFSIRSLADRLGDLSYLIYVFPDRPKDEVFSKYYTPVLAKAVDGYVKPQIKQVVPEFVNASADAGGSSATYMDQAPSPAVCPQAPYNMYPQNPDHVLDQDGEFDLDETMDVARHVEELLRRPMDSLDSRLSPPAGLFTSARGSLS
Kind of assay: Inhibition of STAT5 activation in human MDA-MB-231 cell assessed as decrease in […] level at 1.25 to 5 uM measured after 24 hrs by Western blot analysis. It is filed as cell-based. Conditions: dose 1.25-5 µM.

Assay [3] concerns MDA-MB-231. Kind of assay: Inhibition of cell migration in human MDA-MB-231 cells assessed as decrease in wound closure rate at 5 uM incubated for 6 to 24 hrs by wound healing assay. It is filed as functional, cell-based. Conditions: time 6-24 hrs.
Assay [4] relates to MDA-MB-468. Nature of the assay: Decrease in STAT5 expression level in human MDA-MB-468 cell cytoplasm at 1.25 to 5 uM measured after 24 hrs by Western blot analysis. The assay is classed as functional, cell-based. The conditions noted are these: dose 1.25-5 µM.
The subject of assay [5] is MDA-MB-231. Kind of assay: Inhibition of colony formation in human MDA-MB-231 cells assessed as reduction in colony number and size at 1.25 to 5 uM by plate colony formation assay. The assay is classed as functional, cell-based. The conditions noted are these: dose 1.25-5 µM.
The test system of assay [6] is MDA-MB-231. Kind of assay: Induction of apoptosis in human MDA-MB-231 cells assessed as up-regulation of cleaved caspase 9 at 2.5 to 5 uM measured after 24 hrs by Western blotting analysis. The assay is classed as functional, cell-based. Conditions: dose 2.5-5 µM.
In assay [7] the test system is MDA-MB-231. Kind of assay: Decrease in STAT5 expression level in human MDA-MB-231 cell nucleus at 1.25 to 5 uM measured after 24 hrs by Western blot analysis. The assay is classed as functional, cell-based. The conditions noted are these: dose 1.25-5 µM.
Assay [8] has as its system MDA-MB-468. Kind of assay: Induction of apoptosis in human MDA-MB-468 cells assessed as […] at 2.5 to 5 uM measured after 24 hrs by Western blotting analysis. The conditions noted are these: dose 2.5-5 µM. It is filed as functional, cell-based.
Assay [9] deals with MDA-MB-231. Kind of assay: In vivo antitumor activity against human MDA-MB-231 cells xenografted in Female BALB/c-nude assessed as down-regulation of p-STAT3 expression in tumor tissue at 15 to 30 mg/kg, ip once daily for 21 consecutive days by […]. It is filed as functional, organism-based. Conditions: dose 15-30 mg/kg, time 21.0 day.
The test system of assay [10] is MDA-MB-468. Kind of assay: Induction of apoptosis in human MDA-MB-468 cells assessed as up-regulation of cleaved caspase 9 at 2.5 to 5 uM measured after 24 hrs by Western blotting analysis. Conditions: dose 2.5-5 µM. The assay is classed as functional, cell-based.
In assay [11] the test system is MDA-MB-231. Kind of assay: In vivo antitumor activity against human MDA-MB-231 cells xenografted in Female BALB/c-nude assessed as increase in TUNEL positive cells in tumor tissue at 15 to 30 mg/kg, ip once daily for 21 consecutive days by TUNEL cell apoptosis assay. It is filed as functional, organism-based. The conditions noted are these: dose 15-30 mg/kg, time 21.0 day. For orientation: A xenograft is tissue or cells of one species grown in another, often human tumour cells in immunodeficient mice.

Assay [12] relates to MDA-MB-231. Kind of assay: Induction of apoptosis in human MDA-MB-231 cells assessed as down-regulation of cleaved […] at 2.5 to 5 uM measured after 24 hrs by Western blotting analysis. The assay is classed as functional, cell-based. Conditions: dose 2.5-5 µM.
For assay [13], the system named is MDA-MB-468. Kind of assay: Decrease in STAT5 expression level in human MDA-MB-468 cell nucleus at 1.25 to 5 uM measured after 24 hrs by Western blot analysis. It is filed as functional, cell-based. Conditions: dose 1.25-5 µM.
Assay [14] relates to MDA-MB-231. Nature of the assay: Induction of apoptosis in human MDA-MB-231 cells assessed as up-regulation of cleaved Bax at 2.5 to 5 uM measured after 24 hrs by Western blotting analysis. Conditions: dose 2.5-5 µM. It is filed as functional, cell-based.
Assay [15] deals with MDA-MB-468. Nature of the assay: Induction of apoptosis in human MDA-MB-468 cells assessed as down-regulation of cleaved Bcl-2 at 2.5 to 5 uM measured after 24 hrs by Western blotting analysis. The assay is classed as functional, cell-based. The conditions noted are these: dose 2.5-5 µM.
Assay [16] concerns MDA-MB-231. Nature of the assay: Induction of apoptosis in human MDA-MB-231 cells assessed as up-regulation of cleaved caspase 3 at 2.5 to 5 uM measured after 24 hrs by Western blotting analysis. The assay is classed as functional, cell-based. Conditions: dose 2.5-5 µM.
Assay [17] deals with MDA-MB-231. Kind of assay: Anti-invasion ability in human MDA-MB-231 cells assessed as reduction in cell invasion and migration ability rate incubated for 24 hrs by Boyden chamber transwell assay. The assay is classed as functional, cell-based. The conditions noted are these: dose 1.25-5 µM.
The target of assay [18] is T2, Signal transducer and activator of transcription 1-alpha/beta (Homo sapiens) (UniProt P42224).
T2 sequence (whole entry): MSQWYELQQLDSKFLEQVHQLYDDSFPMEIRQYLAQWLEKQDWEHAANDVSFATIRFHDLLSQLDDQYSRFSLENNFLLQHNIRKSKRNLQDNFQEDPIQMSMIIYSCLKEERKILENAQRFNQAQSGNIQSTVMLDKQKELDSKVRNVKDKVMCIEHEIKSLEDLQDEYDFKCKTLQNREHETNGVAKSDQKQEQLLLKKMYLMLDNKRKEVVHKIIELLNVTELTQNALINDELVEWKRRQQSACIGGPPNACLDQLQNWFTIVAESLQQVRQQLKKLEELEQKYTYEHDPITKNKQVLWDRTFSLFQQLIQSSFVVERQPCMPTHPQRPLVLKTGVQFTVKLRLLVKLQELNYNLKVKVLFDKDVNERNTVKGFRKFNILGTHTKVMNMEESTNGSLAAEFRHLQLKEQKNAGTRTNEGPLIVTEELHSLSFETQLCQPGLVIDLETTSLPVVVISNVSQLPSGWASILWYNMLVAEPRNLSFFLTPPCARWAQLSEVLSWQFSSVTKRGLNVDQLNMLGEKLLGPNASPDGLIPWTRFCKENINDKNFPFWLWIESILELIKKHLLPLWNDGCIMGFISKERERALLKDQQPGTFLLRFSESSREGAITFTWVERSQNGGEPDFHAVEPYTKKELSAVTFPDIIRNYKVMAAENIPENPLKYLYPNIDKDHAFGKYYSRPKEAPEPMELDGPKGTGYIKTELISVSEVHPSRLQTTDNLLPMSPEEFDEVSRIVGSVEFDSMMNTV
Kind of assay: Inhibition of STAT1 activation in human MDA-MB-231 cell assessed as decrease in phosphorylated STAT1 (Tyr701) level at 1.25 to 5 uM measured after 24 hrs by Western blot analysis. It is filed as cell-based. The conditions noted are these: dose 1.25-5 µM.

For assay [19], the system named is MDA-MB-231. Kind of assay: In vivo antitumor activity against human MDA-MB-231 cells xenografted in Female BALB/c-nude assessed as up-regulation of C-Caspase 3 expression in tumor tissue at 15 to 30 mg/kg, ip once daily for 21 consecutive days by […]. The assay is classed as functional, organism-based. Conditions: dose 15-30 mg/kg, time 21.0 day.

Assay [20] deals with MDA-MB-231. Nature of the assay: Induction of apoptosis in human MDA-MB-231 cells assessed as down-regulation of cleaved Bcl-2 at 2.5 to 5 uM measured after 24 hrs by Western blotting analysis. The assay is classed as functional, cell-based. The conditions noted are these: dose 2.5-5 µM.
Assay [21] relates to MDA-MB-231. Nature of the assay: Decrease in STAT5 expression level in human MDA-MB-231 cell cytoplasm at 1.25 to 5 uM measured after 24 hrs by Western blot analysis. Conditions: dose 1.25-5 µM. The assay is classed as functional, cell-based.
In assay [22] the test system is MDA-MB-468. Nature of the assay: Induction of apoptosis in human MDA-MB-468 cells assessed as up-regulation of cleaved caspase 3 at 2.5 to 5 uM measured after 24 hrs by Western blotting analysis. The assay is classed as functional, cell-based. The conditions noted are these: dose 2.5-5 µM.
The test system of assay [23] is MDA-MB-468. Nature of the assay: Induction of apoptosis in human MDA-MB-468 cells assessed as early apoptotic cells at 10 uM measured after 24 hrs incubation by the annexin V/propidium iodide (PI) double staining assay (reference value: 2.36%). The assay is classed as functional.
The test system of assay [24] is MDA-MB-468. Kind of assay: Induction of apoptosis in human MDA-MB-468 cells assessed as late apoptotic cells at 10 uM measured after 24 hrs incubation by the annexin V/propidium iodide (PI) double staining assay (reference value: 4.33%). The assay is classed as functional.
In assay [25] the test system is MDA-MB-231. Nature of the assay: Induction of apoptosis in human MDA-MB-231 cells assessed as late apoptotic cells at 10 uM measured after 24 hrs incubation by the annexin V/propidium iodide (PI) double staining assay (reference value: 3.08%). The assay is classed as functional.
For assay [26], the system named is MDA-MB-231. Kind of assay: Induction of apoptosis in human MDA-MB-231 cells assessed as early apoptotic cells at 10 uM measured after 24 hrs incubation by the annexin V/propidium iodide (PI) double staining assay (reference value: 2.37%). The assay is classed as functional.

Activity calls are given as the source filed them. The rule behind the calls is not given here. Peptide text beside a SMILES is read from it. * marks the point of attachment. Cbz = O=C(OCc1ccccc1)*; CH2F = FC*

Take `CC(C)C[C@@H](CO)N1CCc2c(oc3c2C(=O)C(=O)c2ccccc2-3)C1`: the result in the assay on MDA-MB-468 [1], in the assay on MDA-MB-231 [6], with MDA-MB-231 [7], with MDA-MB-468 [8], in the assay on MDA-MB-231 [9] and with MDA-MB-468 [10] was Active. Further, the outcome with MDA-MB-231 [11], in the assay with MDA-MB-231 [12], in the assay on MDA-MB-468 [13], in the assay on MDA-MB-231 [14], in the assay on MDA-MB-468 [15] and with MDA-MB-231 [16] was Active. For the same compound, the outcome in the assay on MDA-MB-231 [19], in the assay with MDA-MB-231 [20] and in the assay with MDA-MB-468 [22] was Active. The inhibition entry in assay [2] and in [18] was “inactive” in each case. In addition, the inhibition entry in the assay on MDA-MB-231 [3] and in the assay on MDA-MB-231 [5] was “Active” throughout. The result with MDA-MB-468 [4] and in the assay on MDA-MB-231 [21] was inactive. The Activity entry in the assay with MDA-MB-231 [17] is “Dose-Dependent Effect”.
As for `CC(C)[C@H](NC(=O)OCc1ccccc1)C(=O)N[C@@H](C)C(=O)N[C@@H](CC(=O)O)C(=O)CF` (Cbz-Val-Ala-Asp-CH2F), the Activity with MDA-MB-468 [23] is on record as 5.02%; in the assay on MDA-MB-468 [24], 2.19%; with MDA-MB-231 [25], 2.63%; in the assay on MDA-MB-231 [26], 2.76%.
